How the values were obtained:
male Sprague-Dawley rats [1] = assay: Heroin-induced conditioned place preference (CPP), expression phase; format: in vivo; conditions: for Time spent in chambers, Paired / Time spent in chambers, Unpaired: mean ± S.E.M.
Excerpt: In all rodent studies, male Sprague-Dawley rats were used (200-225 g. Taconic farms, Germantown, N.Y.). Animals were allowed to acclimate to the animal housing facility for at least 5 days prior to beginning the experiments. Conditioned place preference (CPP) chambers were used as previously described (Lepore et al., 1995), except instead of one chamber being entirely white and the other black, one chamber was entirely light blue with a stainless steel floor and the second chamber was light blue with horizontal black stripes (2.5 cm wide) spaced 3.8 cm apart with a smooth plexiglass floor. In all CPP studies with GVG, the saline volume was (1 ml/kg), and the heroin doses were 1.5 mg/kg. The saline, heroin and GVG were all injected intraperitonealy (i.p.). The conditioning procedure for the acquisition phase consisted of 12 sessions carried out consecutively over 12 days.
The CPP pairings were: 1) saline/saline 2) saline/heroin 3) GVG/saline 4) saline/heroin and GVG. The animals in each group were randomly assigned to a 2×2 factorial design ,with one factor being the pairing chamber and the other factor being the order of conditioning. The animals that received either saline or heroin were injected and confined to the appropriate compartment for 30 minutes. The GVG injections were given 3 hours before saline or heroin injection and subsequent placement of the animals in the appropriate chamber. This was done as it has been shown that GABA levels reach maximal values 3 to 4 hours following GVG administration.
On the test day (day 12), neither drugs nor saline were administered and the animal was allowed to move freely between both chambers for fifteen minutes. The amount of time spent in each chamber was recorded using an automated infrared beam electronically coupled to a timer. For the expression phase of CPP to heroin, the animals were habituated and conditioned to heroin as described in the acquisition studies, but no animals in the expression studies were given GVG on conditioning days. On the test day (day 12), the animals being tested in the expression phase, unlike the animals in the acquisition phase, received either saline or GVG 2.5 hours before they were placed in the apparatus and allowed free access to both chambers for 15 minutes.

male Sprague-Dawley rats [2] = assay: Hot plate test (53 degrees Centigrade), latency to forepaw licking; format: in vivo; conditions: for Licking latency: mean ± S.E.M., 10 rats
Experimental: The effect of GVG on the analgesic potency of morphine in male Sprague-Dawley rats was examined using the hot plate test. In this paradigm, animals are treated and placed on a hot plate at a temperature of 53 degrees Centigrade and the latency to licking of one of the forepaws was measured. This test is used as screen for agents that have moderate to significant analgesic action as these drugs will increase latency to forepaw licking.
The rats were treated with either vehicle or GVG 2.5 hours prior to receiving either vehicle or morphine. Animals were given either vehicle or morphine 30 minutes prior to placing them on a hot plate at a constant temperature of 53 degrees Centigrade. Analgesic potency was assessed by measuring the latency to forepaw licking after placement on the hot plate. A total of 10 rats were examined for each treatment group.

[3] = test system: extracellular DA concentrations in the nucleus accumbens (NAcc); assay: In vivo microdialysis: morphine-induced extracellular DA in the nucleus accumbens of freely moving rats; parameters: species or system Sprague-Dawley rats
Excerpt: The effects of increased endogenous GABA activity on morphine-induced extracellular DA concentrations in the nucleus accumbens (NAcc) of freely moving rats was explored.
All animals there used under an IACUC-approved protocol and with strict adherence to the NIH guidelines. Adult male Sprague-Dawley rats (200-300 g, Taconic Farms), housed in the animals care facility under 12:12 light/dark conditions, were placed into 6 groups (n=3-6), anesthetized and siliconized guide cannulae were stereotactically implanted into the right NAcc (2.0 mm anterior and 1.0 mm lateral to bregms, and 7.0 mm ventral to the cortical surface) and prefrontal cortex (PFC) at least 4 days prior to study. Microdialysis probes (2.0 mm, Bioanalytical Systems, BAS, West Lafayette. Ind.) were positioned within the guide cannulae and artificial cerebrospinal fluid (ACSF. 155.0 mM NA^−, 1.1 mM Ca^2−, 2.9 mM K^−, 132.76 mM Cl^−, and 0.83 mM Mg^2−) was administered through the probe using a CMA/100 microinfusion pump (BAS) at a flow rate of 2.0 μl/min.
Animals were placed in bowls, and probes were inserted and flushed with ACSF overnight. On the day of the study. a minimum of three samples were injected to determine baseline stability. Samples were collected for 20 min. and injected on-line (CMA/160, BAS). The average dopamine concentration of these three stable samples was defined as control (100%). and all subsequent treatment values were transformed to a percentage of that control. Upon establishing a stable baseline, the morphine was administered by intraperitoneal (i.p.) injection. The high performance liquid chromatography (HPLC) system consists of a BAS reverse-phase column (3.0 μC-18), a BAS LC-4C electrochemical transducer with a dual/glassy carbon electrode set at 650 mV, a computer that analyzes data on-line using a commercial software package (Chromograph Bioanalytical Systems), and a dual pen chart recorder. The mobile phase (flow rate 1.0 ml/min) consisted of 7.0% methanol, 50 mM sodium phosphate monobasic, 1.0 mM sodium octyl sulfate, and 0.1 mm […], pH 4.0. DA eluted at 7.5 min.
Gamma-vinyl GABA (GVG), an irreversible inhibitor of GABA-transaminase, was administered by intraperitoneal injection 2.5 hours prior to morphine (7 mg/kg). In all studies, animals were placed in the microdialysis bowls the night before the experiment and artificial cerebrospinal fluid (ACSF) was perfused through the microdialysis probes at a flow rate of 2.0 μl/min. At the end of each study, animals were sacrificed and their brains were removed and sectioned for probe placement verification
Levels of extracellular DA were sampled from the NAcc continuously using a stereoaxically implanted probe. Morphine alone increases DA concentrations 50% above baseline in the NAcc (p<0.01, T=3.79).

[4] = pairing Vehicle/Heroin, GVG 300 mg/kg on test day (2.5 h before test)
[5] = pairing Vehicle/Vehicle, GVG 300 mg/kg on test day
[6] = pairing Vehicle/Heroin (heroin 1.5 mg/kg i.p.), vehicle on test day

C=CC(N)CCC(=O)O (stereo not drawn) [GVG, 4-amino-5-hexanoic acid]
Effect on expression of heroin-induced CPP (male Sprague-Dawley rats [1]; GVG 300 mg/kg on test day): blocked the expression of heroin-induced CPP
Time spent in chambers, Paired (male Sprague-Dawley rats [1]; [4]): 6.6 ± 0.7 min
Time spent in chambers, Unpaired (male Sprague-Dawley rats [1]; [4]): 8.4 ± 0.7 min
Time spent in chambers, Paired (male Sprague-Dawley rats [1]; [5]): 7.4 ± 0.3 min
Time spent in chambers, Unpaired (male Sprague-Dawley rats [1]; [5]): 7.6 ± 0.3 min
Effect of GVG on the analgesic potency of morphine (male Sprague-Dawley rats [2]; GVG 300 mg/kg i.p. 2.5 hrs prior to morphine 10 mg/kg i.p.): does not alter the analgesic potency of morphine
Licking latency (male Sprague-Dawley rats [2]; pretreatment GVG 300 mg/kg (2.5 h before), treatment morphine 10 mg/kg): 27 ± 2.9 s
Licking latency (male Sprague-Dawley rats [2]; pretreatment GVG 300 mg/kg (2.5 h before), treatment vehicle 1 ml/kg): 17 ± 1.4+ sec
Inhibition of the DA response to morphine in the NAcc ([3]; GVG 150 mg/kg i.p. 2.5 hours prior to morphine 7 mg/kg): no significant inhibition
Attenuation of the DA response to morphine in the NAcc ([3]; GVG 300 mg/kg i.p. 2.5 hours prior to morphine 7 mg/kg, p<0.01): 62%
Attenuation of the DA response to morphine in the NAcc ([3]; GVG 500 mg/kg i.p. 2.5 hours prior to morphine 7 mg/kg, p<0.001): 67%

CC(=O)Oc1ccc2c3c1O[C@H]1[C@@H](OC(C)=O)C=C[C@H]4[C@@H](C2)N(C)CC[C@@]341 [Heroin, heroin]
Time spent in chambers, Paired (male Sprague-Dawley rats [1]; [6]): 10.9 ± 0.4 min
Time spent in chambers, Unpaired (male Sprague-Dawley rats [1]; [6]): 4.1 ± 0.4 min

CN1CC[C@]23c4c5ccc(O)c4O[C@H]2[C@@H](O)C=C[C@H]3[C@H]1C5 [Morphine, morphine]
Licking latency (male Sprague-Dawley rats [2]; pretreatment vehicle 1 ml/kg, treatment morphine 10 mg/kg 30 min before hot plate): 27 ± 3.0 s
Increase of DA concentrations above baseline in the NAcc ([3]; morphine alone, 7 mg/kg i.p., baseline = 100%, p<0.01): 50%
